Results published in patent US7745483B2, “2-Halofuryl-thienyl-3-carboxamides” (Bayer CropScience AG, priority 2004, dated 2010).

Tests used:
Assay type in all cases: in vivo
[1] = tested on: Sphaerotheca fuliginea; assay: Sphaerotheca test (cucumber)/protective; settings: Podosphaera fuliginea, 168 h, protective, application rate 100 g/ha, evaluation 7 days after inoculation, read-out: Efficacy in %
Procedure: (§1) [table] To produce a suitable preparation of active compound, one part by weight of active compound is mixed with the stated amounts of solvent and emulsifier, and the concentrate is diluted with water to the desired concentration. To test for protective activity, young plants are sprayed with the preparation of active compound at the stated application rate. After the spray coating has dried on, the plants are inoculated with an aqueous spore suspension of Sphaerotheca fuliginea. The plants are then placed in a greenhouse at about 23° C. and a relative atmospheric humidity of about 70%. Evaluation is carried out 7 days after the inoculation. 0% means an efficacy which corresponds to that of the control, whereas an efficacy of 100% means that no infection is observed.

[2] = tested on: Venturia inaequalis; assay: Venturia test (apple)/protective; settings: 240 h, protective, application rate 100 g/ha, evaluation 10 days after inoculation, read-out: Efficacy in %
Procedure: as §1, with “amount” for “amounts”, “conidia” for “spore”, “the apple scab pathogen Venturia inaequalis and then remain in an incubation cabin at about 20° C. and 100% relative atmospheric humidity for 1 day.” for “Sphaerotheca fuliginea.”, “21°” for “23°”, “90%.” for “70%.”, “10” for “7”

[3] = tested on: Puccinia recondita; assay: Puccinia test (wheat)/protective; settings: 240 h, protective, application rate 500 g/ha, evaluation 10 days after inoculation, read-out: Efficacy in %
Procedure: [table] To produce a suitable preparation of active compound, 1 part by weight of active compound is mixed with the stated amounts of solvent and emulsifier, and the concentrate is diluted with water to the desired concentration. To test for protective activity, young plants are sprayed with the preparation of active compound at the stated application rate. After the spray coating has dried on, the plants are sprayed with a conidia suspension Puccinia recondita. The plants remain in an incubation cabin at 20° C. and 100% relative atmospheric humidity for 48 hours. The plants are then placed in a greenhouse at a temperature of about 20° C. and a relative atmospheric humidity of 80% to promote the development of rust pustules. Evaluation is carried out 10 days after the inoculation. 0% means an efficacy which corresponds to that of the control, whereas an efficacy of 100% means that no infection is observed.

## CC(C)CC(C)c1ccccc1NC(=O)c1ccsc1I (stereo not drawn) [drawing 152]
[1]
  pest or weed control at 100 g/ha: 98%

## CC(CC(C)(C)C)c1ccccc1NC(=O)c1ccoc1I (stereo not drawn) [drawing 153]
[1]
  pest or weed control at 100 g/ha: 98%

## CC(CC(C)(C)C)c1ccccc1NC(=O)c1ccsc1I (stereo not drawn) [drawing 154]
[1]
  pest or weed control at 100 g/ha: 100%

## O=C(Nc1ccccc1-c1ccc(C(F)(F)F)cc1Cl)c1ccsc1I [drawing 155]
[1]
  pest or weed control at 100 g/ha: 100%

## O=C(Nc1ccncc1-c1ccc(Cl)c(Cl)c1)c1ccsc1I [drawing 156]
[1]
  pest or weed control at 100 g/ha: 100%

## O=C(Nc1ccccc1-c1ccc(Br)cc1Cl)c1ccsc1I [drawing 157]
[1]
  pest or weed control at 100 g/ha: 100%

## O=C(Nc1ccccc1-c1ccc(Br)c(F)c1)c1ccsc1I [drawing 158]
[1]
  pest or weed control at 100 g/ha: 100%

## O=C(Nc1ccccc1-c1ccc(Br)c(Cl)c1)c1ccsc1I [drawing 159]
[1]
  pest or weed control at 100 g/ha: 100%

## O=C(Nc1ccccc1-c1cccc(Cl)c1Cl)c1ccsc1I [drawing 160]
[1]
  pest or weed control at 100 g/ha: 100%

## O=C(Nc1ccccc1-c1cccc(Cl)c1F)c1ccsc1I [drawing 161]
[1]
  pest or weed control at 100 g/ha: 100%

## O=C(Nc1ccc(F)cc1-c1cccc(Cl)c1F)c1ccsc1I [drawing 162]
[1]
  pest or weed control at 100 g/ha: 100%

## CC(C)(C)CCc1cc(F)ccc1NC(=O)c1ccsc1I [drawing 163]
[1]
  pest or weed control at 100 g/ha: 100%

## O=C(Nc1ccccc1-c1ccc(Cl)cc1)c1ccoc1I [drawing 164]
[1]
  pest or weed control at 100 g/ha: 100%

## O=C(Nc1ccccc1-c1ccc(Br)cc1)c1ccoc1I [drawing 165]
[1]
  pest or weed control at 100 g/ha: 100%

## O=C(Nc1ccccc1-c1ccc(Cl)c(Cl)c1)c1ccoc1I [drawing 166]
[1]
  pest or weed control at 100 g/ha: 100%

## O=C(Nc1ccccc1-c1ccc(Cl)c(F)c1)c1ccoc1I [drawing 167]
[1]
  pest or weed control at 100 g/ha: 98%

## O=C(Nc1ccccc1-c1ccc(Cl)cc1)c1ccsc1I [drawing 168]
[1]
  pest or weed control at 100 g/ha: 95%

## O=C(Nc1ccccc1-c1ccc(Br)cc1)c1ccsc1I [drawing 169]
[1]
  pest or weed control at 100 g/ha: 100%

## O=C(Nc1ccccc1-c1ccc(Cl)c(F)c1)c1ccsc1I [drawing 170]
[1]
  pest or weed control at 100 g/ha: 98%

## CC(C[Si](C)(C)C)c1ccccc1NC(=O)c1ccoc1I (stereo not drawn) [drawing 171]
[1]
  pest or weed control at 100 g/ha: 100%

## O=C(Nc1ccccc1-c1ccc(C(F)(F)F)cc1)c1ccsc1I [drawing 172]
[1]
  pest or weed control at 100 g/ha: 93%

## O=C(Nc1ccc(F)cc1-c1ccc(Cl)c(Cl)c1)c1ccsc1I [drawing 173]
[1]
  pest or weed control at 100 g/ha: 100%

## Cc1ccc(-c2ccccc2NC(=O)c2ccsc2I)cc1F [drawing 174]
[1]
  pest or weed control at 100 g/ha: 100%

## CC(C)CC(C)c1cc(F)ccc1NC(=O)c1ccsc1I (stereo not drawn) [drawing 175]
[1]
  pest or weed control at 100 g/ha: 97%

## CO/N=C/c1ccc(-c2ccccc2NC(=O)c2ccsc2I)cc1F [drawing 176]
[1]
  pest or weed control at 100 g/ha: 98%

## CC(C)CC(C)c1sccc1NC(=O)c1ccsc1I (stereo not drawn) [drawing 177]
[1]
  pest or weed control at 100 g/ha: 92%

## CC(C)CC(C)c1ccccc1NC(=O)c1ccsc1Br (stereo not drawn) [drawing 178]
[1]
  pest or weed control at 100 g/ha: 100%

## CC(CC(C)(C)C)c1ccccc1NC(=O)c1ccsc1Br (stereo not drawn) [drawing 179]
[1]
  pest or weed control at 100 g/ha: 97%

## O=C(Nc1ccccc1-c1ccc(Cl)cc1)c1ccsc1Br [drawing 180]
[1]
  pest or weed control at 100 g/ha: 100%

## O=C(Nc1ccccc1-c1ccc(Cl)c(Cl)c1)c1ccsc1Br [drawing 181]
[1]
  pest or weed control at 100 g/ha: 100%

## O=C(Nc1ccccc1-c1ccc(Cl)c(F)c1)c1ccsc1Br [drawing 182]
[1]
  pest or weed control at 100 g/ha: 100%

## O=C(Nc1ccccc1-c1ccc(F)c(Cl)c1)c1ccsc1I [drawing 183]
[1]
  pest or weed control at 100 g/ha: 100%

## C[Si](C)(C)CCc1sccc1NC(=O)c1ccsc1I [drawing 184]
[1]
  pest or weed control at 100 g/ha: 100%

## CC(C)CC(C)c1ccccc1NC(=O)c1ccsc1I (stereo not drawn) [drawing 185]
[2]
  pest or weed control at 100 g/ha: 100%

## CC(CC(C)(C)C)c1ccccc1NC(=O)c1ccoc1I (stereo not drawn) [drawing 186]
[2]
  pest or weed control at 100 g/ha: 94%

## CC(CC(C)(C)C)c1ccccc1NC(=O)c1ccsc1I (stereo not drawn) [drawing 187]
[2]
  pest or weed control at 100 g/ha: 100%

## C[Si](C)(C)CCc1ccccc1NC(=O)c1ccsc1I [drawing 188]
[2]
  pest or weed control at 100 g/ha: 100%

## O=C(Nc1ccccc1-c1ccc(C(F)(F)F)cc1Cl)c1ccsc1I [drawing 189]
[2]
  pest or weed control at 100 g/ha: 97%

## O=C(Nc1ccncc1-c1ccc(Cl)c(Cl)c1)c1ccsc1I [drawing 190]
[2]
  pest or weed control at 100 g/ha: 98%

## O=C(Nc1ccccc1-c1ccc(Br)cc1Cl)c1ccsc1I [drawing 191]
[2]
  pest or weed control at 100 g/ha: 100%

## O=C(Nc1ccccc1-c1ccc(Br)c(F)c1)c1ccsc1I [drawing 192]
[2]
  pest or weed control at 100 g/ha: 100%

## O=C(Nc1ccccc1-c1ccc(Br)c(Cl)c1)c1ccsc1I [drawing 193]
[2]
  pest or weed control at 100 g/ha: 100%

## O=C(Nc1ccccc1-c1cccc(Cl)c1Cl)c1ccsc1I [drawing 194]
[2]
  pest or weed control at 100 g/ha: 98%

## O=C(Nc1ccccc1-c1cccc(Cl)c1F)c1ccsc1I [drawing 195]
[2]
  pest or weed control at 100 g/ha: 89%

## O=C(Nc1ccc(F)cc1-c1cccc(Cl)c1F)c1ccsc1I [drawing 196]
[2]
  pest or weed control at 100 g/ha: 100%

## CC(C)(C)CCc1cc(F)ccc1NC(=O)c1ccsc1I [drawing 197]
[2]
  pest or weed control at 100 g/ha: 100%

## O=C(Nc1ccccc1-c1ccc(Cl)cc1)c1ccoc1I [drawing 198]
[2]
  pest or weed control at 100 g/ha: 100%

## O=C(Nc1ccccc1-c1ccc(Br)cc1)c1ccoc1I [drawing 199]
[2]
  pest or weed control at 100 g/ha: 100%

## O=C(Nc1ccccc1-c1ccc(Cl)c(Cl)c1)c1ccoc1I [drawing 200]
[2]
  pest or weed control at 100 g/ha: 99%

## O=C(Nc1ccccc1-c1ccc(Cl)c(F)c1)c1ccoc1I [drawing 201]
[2]
  pest or weed control at 100 g/ha: 100%

## O=C(Nc1ccccc1-c1ccc(Cl)cc1)c1ccsc1I [drawing 202]
[2]
  pest or weed control at 100 g/ha: 100%

## O=C(Nc1ccccc1-c1ccc(Br)cc1)c1ccsc1I [drawing 203]
[2]
  pest or weed control at 100 g/ha: 91%

## O=C(Nc1ccccc1-c1ccc(Cl)c(Cl)c1)c1ccsc1I [drawing 204]
[2]
  pest or weed control at 100 g/ha: 100%

## O=C(Nc1ccccc1-c1ccc(Cl)c(F)c1)c1ccsc1I [drawing 205]
[2]
  pest or weed control at 100 g/ha: 100%

## CC(C[Si](C)(C)C)c1ccccc1NC(=O)c1ccoc1I (stereo not drawn) [drawing 206]
[2]
  pest or weed control at 100 g/ha: 99%

## CC(C[Si](C)(C)C)c1ccccc1NC(=O)c1ccsc1I (stereo not drawn) [drawing 207]
[2]
  pest or weed control at 100 g/ha: 100%

## O=C(Nc1ccccc1-c1ccc(C(F)(F)F)cc1)c1ccsc1I [drawing 208]
[2]
  pest or weed control at 100 g/ha: 99%

## O=C(Nc1ccc(F)cc1-c1ccc(Cl)c(Cl)c1)c1ccsc1I [drawing 209]
[2]
  pest or weed control at 100 g/ha: 100%

## Cc1ccc(-c2ccccc2NC(=O)c2ccsc2I)cc1F [drawing 210]
[2]
  pest or weed control at 100 g/ha: 100%

## CC1CC(C)(C)c2cccc(NC(=O)c3ccsc3I)c21 (stereo not drawn) [drawing 211]
[2]
  pest or weed control at 100 g/ha: 100%

## CC(C)CC(C)c1cc(F)ccc1NC(=O)c1ccsc1I (stereo not drawn) [drawing 212]
[2]
  pest or weed control at 100 g/ha: 100%

## CO/N=C/c1ccc(-c2ccccc2NC(=O)c2ccsc2I)cc1F [drawing 213]
[2]
  pest or weed control at 100 g/ha: 100%

## CC(C)CC(C)c1sccc1NC(=O)c1ccsc1I (stereo not drawn) [drawing 214]
[2]
  pest or weed control at 100 g/ha: 100%

## CC(C)CC(C)c1ccccc1NC(=O)c1ccsc1Br (stereo not drawn) [drawing 215]
[2]
  pest or weed control at 100 g/ha: 100%

## CC(CC(C)(C)C)c1ccccc1NC(=O)c1ccsc1Br (stereo not drawn) [drawing 216]
[2]
  pest or weed control at 100 g/ha: 98%

## O=C(Nc1ccccc1-c1ccc(Cl)cc1)c1ccsc1Br [drawing 217]
[2]
  pest or weed control at 100 g/ha: 100%

## O=C(Nc1ccccc1-c1ccc(Cl)c(Cl)c1)c1ccsc1Br [drawing 218]
[2]
  pest or weed control at 100 g/ha: 100%

## O=C(Nc1ccccc1-c1ccc(Cl)c(F)c1)c1ccsc1Br [drawing 219]
[2]
  pest or weed control at 100 g/ha: 100%

## O=C(Nc1ccccc1-c1ccc(F)c(Cl)c1)c1ccsc1I [drawing 220]
[2]
  pest or weed control at 100 g/ha: 100%

## C[Si](C)(C)CCc1sccc1NC(=O)c1ccsc1I [drawing 221]
[2]
  pest or weed control at 100 g/ha: 100%

## CC(C)CC(C)c1ccccc1NC(=O)c1ccsc1I (stereo not drawn) [drawing 260]
[3]
  pest or weed control at 500 g/ha: 100%

## CC(C)CC(C)c1ccccc1NC(=O)c1ccoc1I (stereo not drawn) [drawing 261]
[3]
  pest or weed control at 500 g/ha: 100%

## C[Si](C)(C)CCc1ccccc1NC(=O)c1ccsc1I [drawing 262]
[3]
  pest or weed control at 500 g/ha: 97%

## CC(C)(C)CCc1ccccc1NC(=O)c1ccsc1I [drawing 263]
[3]
  pest or weed control at 500 g/ha: 97%

## O=C(Nc1ccccc1-c1ccc(Br)c(F)c1)c1ccsc1I [drawing 264]
[3]
  pest or weed control at 500 g/ha: 100%
